In the supplement of paper PMC10307832:

How the values were obtained:
Assay in all cases: relative viability (nuclei count vs DMSO), 5 days (fraction); higher = more cells survive
BEN = tested on: BEN
How it was run: (§1)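 Dosing by pin tool came one day after lung cancer cell lines were seeded in 1536-well plates, using either one drug or a fixed anchor-drug dose plus five library-drug doses (not always all listed) in √10 steps. After 5 days, nuclei were counted on 4× images. Relative viability is treated-well nuclei count divided by vehicle-well nuclei count, and values are medians of duplicate plates.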

ChaGo-K-1 = tested on: ChaGo-K-1
How it was run: as §1

HCC-78 = tested on: HCC-78
How it was run: as §1

LC-2-ad = tested on: LC-2-ad
How it was run: as §1

LCLC-97TM1 = tested on: LCLC-97TM1
How it was run: as §1

LK-2 = tested on: LK-2
How it was run: as §1

LU99A = tested on: LU99A
How it was run: as §1

LXF-289 = tested on: LXF-289
How it was run: as §1

NCI-H1355 = tested on: NCI-H1355
How it was run: as §1

NCI-H1651 = tested on: NCI-H1651
How it was run: as §1

NCI-H1666 = tested on: NCI-H1666
How it was run: as §1

NCI-H1944 = tested on: NCI-H1944
How it was run: as §1

NCI-H1975 = tested on: NCI-H1975
How it was run: as §1

NCI-H2087 = tested on: NCI-H2087
How it was run: as §1

NCI-H2342 = tested on: NCI-H2342
How it was run: as §1

NCI-H358 = tested on: NCI-H358
How it was run: as §1

NCI-H596 = tested on: NCI-H596
How it was run: as §1

NCI-H650 = tested on: NCI-H650
How it was run: as §1

NCI-H661 = tested on: NCI-H661
How it was run: as §1

NCI-H838 = tested on: NCI-H838
How it was run: as §1

PC-3 [JPC-3] = tested on: PC-3 [JPC-3]
How it was run: as §1

SK-MES-1 = tested on: SK-MES-1
How it was run: as §1

For `O=c1cc(N2CCOCC2)oc2c(-c3cccc4c3sc3ccccc34)cccc12` + O=C(c1cc(Cc2n[nH]c(=O)c3ccccc23)ccc1F)N1CCN(C(=O)C2CC2)CC1 [Olaparib] (partner 8 µM), the relative viability (BEN; first compound 0.01 µM) was 1.12, the relative viability (BEN; first compound 0.03162 µM) was 1.21 and the relative viability (BEN; first compound 0.1 µM) was 1.21. For the same compound, the relative viability (BEN; first compound 0.3162 µM) was 1.08, the relative viability (BEN; first compound 1 µM) was 1.1 and the relative viability (ChaGo-K-1; first compound 0.01 µM) was 0.421. For the same compound, the relative viability (ChaGo-K-1; first compound 0.03162 µM) was 0.439, the relative viability (ChaGo-K-1; first compound 0.1 µM) was 0.434 and the relative viability (ChaGo-K-1; first compound 0.3162 µM) was 0.447. It also gave a relative viability (ChaGo-K-1; first compound 1 µM) of 0.447, a relative viability (HCC-78; first compound 0.01 µM) of 0.783 and a relative viability (HCC-78; first compound 0.03162 µM) of 0.687. It also gave a relative viability (HCC-78; first compound 0.1 µM) of 0.644, a relative viability (HCC-78; first compound 0.3162 µM) of 0.835 and a relative viability (HCC-78; first compound 1 µM) of 0.828. The relative viability (LC-2-ad; first compound 0.01 µM) was 0.707, the relative viability (LC-2-ad; first compound 0.03162 µM) was 0.694 and the relative viability (LC-2-ad; first compound 0.1 µM) was 0.77. It also gave a relative viability (LC-2-ad; first compound 0.3162 µM) of 0.764, a relative viability (LC-2-ad; first compound 1 µM) of 0.662 and a relative viability (LCLC-97TM1; first compound 0.01 µM) of 0.316. The relative viability (LCLC-97TM1; first compound 0.03162 µM) was 0.374, the relative viability (LCLC-97TM1; first compound 0.1 µM) was 0.502 and the relative viability (LCLC-97TM1; first compound 0.3162 µM) was 0.269. It also gave a relative viability (LCLC-97TM1; first compound 1 µM) of 0.432, a relative viability (LK-2; first compound 0.01 µM) of 0.802 and a relative viability (LK-2; first compound 0.03162 µM) of 0.554. For the same compound, the relative viability (LK-2; first compound 0.1 µM) was 0.847, the relative viability (LK-2; first compound 0.3162 µM) was 0.722 and the relative viability (LK-2; first compound 1 µM) was 0.737. It also gave a relative viability (LU99A; first compound 0.01 µM) of 0.259, a relative viability (LU99A; first compound 0.03162 µM) of 0.273 and a relative viability (LU99A; first compound 0.1 µM) of 0.277. The relative viability (LU99A; first compound 0.3162 µM) was 0.27, the relative viability (LU99A; first compound 1 µM) was 0.278 and the relative viability (LXF-289; first compound 0.01 µM) was 1.01. For the same compound, the relative viability (LXF-289; first compound 0.03162 µM) was 1.08, the relative viability (LXF-289; first compound 0.1 µM) was 1.08 and the relative viability (LXF-289; first compound 0.3162 µM) was 1.03. For the same compound, the relative viability (LXF-289; first compound 1 µM) was 1.11, the relative viability (NCI-H1355; first compound 0.01 µM) was 0.712 and the relative viability (NCI-H1355; first compound 0.03162 µM) was 0.675. The relative viability (NCI-H1355; first compound 0.1 µM) was 0.711, the relative viability (NCI-H1355; first compound 0.3162 µM) was 0.709 and the relative viability (NCI-H1355; first compound 1 µM) was 0.743. The relative viability (NCI-H1651; first compound 0.01 µM) was 0.19, the relative viability (NCI-H1651; first compound 0.03162 µM) was 0.188 and the relative viability (NCI-H1651; first compound 0.1 µM) was 0.179. For the same compound, the relative viability (NCI-H1651; first compound 0.3162 µM) was 0.178, the relative viability (NCI-H1651; first compound 1 µM) was 0.168 and the relative viability (NCI-H1666; first compound 0.01 µM) was 0.753. The relative viability (NCI-H1666; first compound 0.03162 µM) was 0.738, the relative viability (NCI-H1666; first compound 0.1 µM) was 0.777 and the relative viability (NCI-H1666; first compound 0.3162 µM) was 0.684. For the same compound, the relative viability (NCI-H1666; first compound 1 µM) was 0.692, the relative viability (NCI-H1944; first compound 0.01 µM) was 0.438 and the relative viability (NCI-H1944; first compound 0.03162 µM) was 0.406. For the same compound, the relative viability (NCI-H1944; first compound 0.1 µM) was 0.4, the relative viability (NCI-H1944; first compound 0.3162 µM) was 0.384 and the relative viability (NCI-H1944; first compound 1 µM) was 0.393. The relative viability (NCI-H1975; first compound 0.01 µM) was 0.834, the relative viability (NCI-H1975; first compound 0.03162 µM) was 0.785 and the relative viability (NCI-H1975; first compound 0.1 µM) was 0.915. It also gave a relative viability (NCI-H1975; first compound 0.3162 µM) of 0.82, a relative viability (NCI-H1975; first compound 1 µM) of 0.809 and a relative viability (NCI-H2087; first compound 0.01 µM) of 0.544. It also gave a relative viability (NCI-H2087; first compound 0.03162 µM) of 0.65, a relative viability (NCI-H2087; first compound 0.1 µM) of 0.672 and a relative viability (NCI-H2087; first compound 0.3162 µM) of 0.552. For the same compound, the relative viability (NCI-H2087; first compound 1 µM) was 0.587, the relative viability (NCI-H2342; first compound 0.01 µM) was 0.418 and the relative viability (NCI-H2342; first compound 0.03162 µM) was 0.434. It also gave a relative viability (NCI-H2342; first compound 0.1 µM) of 0.438, a relative viability (NCI-H2342; first compound 0.3162 µM) of 0.457 and a relative viability (NCI-H2342; first compound 1 µM) of 0.428. The relative viability (NCI-H358; first compound 0.01 µM) was 0.623, the relative viability (NCI-H358; first compound 0.03162 µM) was 0.634 and the relative viability (NCI-H358; first compound 0.1 µM) was 0.721. The relative viability (NCI-H358; first compound 0.3162 µM) was 0.553, the relative viability (NCI-H358; first compound 1 µM) was 0.669 and the relative viability (NCI-H596; first compound 0.01 µM) was 0.675. For the same compound, the relative viability (NCI-H596; first compound 0.03162 µM) was 0.628, the relative viability (NCI-H596; first compound 0.1 µM) was 0.735 and the relative viability (NCI-H596; first compound 0.3162 µM) was 0.683. The relative viability (NCI-H596; first compound 1 µM) was 0.694, the relative viability (NCI-H650; first compound 0.01 µM) was 0.424 and the relative viability (NCI-H650; first compound 0.03162 µM) was 0.38. For the same compound, the relative viability (NCI-H650; first compound 0.3162 µM) was 0.381, the relative viability (NCI-H650; first compound 1 µM) was 0.4 and the relative viability (NCI-H661; first compound 0.01 µM) was 0.744. The relative viability (NCI-H661; first compound 0.03162 µM) was 0.725, the relative viability (NCI-H661; first compound 0.1 µM) was 0.709 and the relative viability (NCI-H661; first compound 0.3162 µM) was 0.732. For the same compound, the relative viability (NCI-H661; first compound 1 µM) was 0.721, the relative viability (NCI-H838; first compound 0.01 µM) was 0.753 and the relative viability (NCI-H838; first compound 0.03162 µM) was 0.775. It also gave a relative viability (NCI-H838; first compound 0.1 µM) of 0.851, a relative viability (NCI-H838; first compound 0.3162 µM) of 0.769 and a relative viability (NCI-H838; first compound 1 µM) of 0.749. For the same compound, the relative viability (PC-3 [JPC-3]; first compound 0.01 µM) was 1.07, the relative viability (PC-3 [JPC-3]; first compound 0.03162 µM) was 1.11 and the relative viability (PC-3 [JPC-3]; first compound 0.1 µM) was 1.15. For the same compound, the relative viability (PC-3 [JPC-3]; first compound 0.3162 µM) was 1.14, the relative viability (PC-3 [JPC-3]; first compound 1 µM) was 1.09 and the relative viability (SK-MES-1; first compound 0.01 µM) was 0.68. It also gave a relative viability (SK-MES-1; first compound 0.03162 µM) of 0.71, a relative viability (SK-MES-1; first compound 0.1 µM) of 0.808 and a relative viability (SK-MES-1; first compound 0.3162 µM) of 0.598. The relative viability (SK-MES-1; first compound 1 µM) was 0.634.
